Experimental findings from patent publication US11065311B2, “Retroviral vector with mini-promoter cassette” (DENOVO BIOPHARMA LLC, priority 2012, dated 2021) are described below.

The series has as its system U87 cells. To be noted: MTS. As for the experimental part: Cell were seeded at 3E3 cells in 96-well plates the day before. At 24 hour post cell seeding, PALA at 0.00975, 0.039, 0.156, 0.625, 2.5, 10, 40 and 160 uM were added to the culture for 5 consecutive days followed by an MTS assay to determine the cell viability. […] A range of cytosine concentrations (0.2, 1, 5 10 mM) in culture was also determined by performing the same experiment described above.

Take N-(phosphonacetyl)-L-aspartate [PALA]: the IC50 (read-out: ICH of PALA, naive U87, U87 with pAC3-yCD2 and with pAC3.S1-yCD2, 5 consecutive days) is 8 to 30 µM.
Turning to `Nc1cc[nH]c(=O)n1` [cytosine], the “tolerance of cells to cytosine” value (0.2, 1, 5 10 mM cytosine in culture) was “tolerate cytosine in all concentrations tested”.
